Columns and labels:
Assay in all cases: ATP consumption, coupled red luciferase luminescence
Type in all cases: biochemical
NEK7 (6xHis-NEK7) = NEK7 (6xHis-NEK7) (Homo sapiens, UniProt Q8TDX7); conditions: 1 uM ATP, protein substrates NEK9(764-976), MAT1 or CC2D1A(501-940), 4 mM MgSO4, pH 8, 37 °C
[1] = biological target: T1, sMtCK (6xHis-sarcomeric creatine kinase, pUS01) (Homo sapiens, UniProt P17540); conditions: 5 mM creatine, 50 uM ATP, 4 mM MgSO4, pH 8, 37 °C, 30 min
T1 construct: gene CKMT2; 6xHis, pET3b plasmid pUS01 (Schlattner), E. coli BL21(DE3)

[2] = biological target: T2, uMtCK (6xHis-ubiquitous creatine kinase, pUS04) (Homo sapiens, UniProt P12532); conditions: 5 mM creatine, 50 uM ATP, 4 mM MgSO4, pH 8, 37 °C, 30 min
T2 construct: gene CKMT1A; 6xHis, pET3b plasmid pUS04 (Schlattner), E. coli BL21(DE3)

Sequence of NEK7 (6xHis-NEK7) (Q8TDX7 whole entry): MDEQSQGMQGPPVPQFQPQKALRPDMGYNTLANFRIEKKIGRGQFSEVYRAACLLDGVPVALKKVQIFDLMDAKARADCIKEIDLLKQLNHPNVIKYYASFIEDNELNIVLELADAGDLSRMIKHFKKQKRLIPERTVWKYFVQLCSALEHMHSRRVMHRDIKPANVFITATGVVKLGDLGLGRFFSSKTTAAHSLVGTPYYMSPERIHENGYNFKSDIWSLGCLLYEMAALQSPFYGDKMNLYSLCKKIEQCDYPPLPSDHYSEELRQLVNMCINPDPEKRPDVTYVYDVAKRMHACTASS

Row | Structure (SMILES) | ATP consumption, coupled red luciferase luminescence (NEK7 (6xHis-NEK7)) | ATP consumption, coupled red luciferase luminescence [1] | ATP consumption, coupled red luciferase luminescence [2]
1 | Nc1ncnc2c1ncn2[C@@H]1O[C@H](COP(=O)(O)OP(=O)(O)OP(=O)(O)O)[C@@H](O)[C@H]1O [ATP] | ATP consumption by NEK7, due to its phosphorylation of substrate proteins/domains | ATP was consumed only in the presence of creatine kinase and creatine | ATP was consumed only in the presence of creatine kinase and creatine
2 | CN(CC(=O)O)C(=N)N [creatine] |  | when creatine was added, the light emission was significantly decreased | 

— PMC5518096, “Use of a special Brazilian red-light emitting railroad worm Luciferase in bioassays of NEK7 protein Kinase and Creatine Kinase” (BMC Biochemistry, 2017)
